Data as given in patent EP0337714A2, “HIV protease inhibitors useful for the treatment of aids” (priority 1988, dated 1989).

Columns and labels:
HIV protease [1] = molecular target: T1, HIV protease (Human immunodeficiency virus type 1 group M subtype B, UniProt P03366); assay: biochemical; conditions: protease expressed in Eschericia coli, substrate Val-Ser-Gln-Asn-(betanapthyl)Ala-Pro-ile-Val 0.5 mg/mL, 50 mM Na acetate, pH 5.5, 30°, 1 hour; read-out: ICso
T1 construct: made in house; host or cells: Escherichia coli
Description: Assay for Inhibition of Microbial Expressed Viral Protease
Inhibition studies of the reaction of the protease expressed in Eschericia coli with a peptide substrate [Val-Ser-Gln-Asn-(betanapthyl)Ala-Pro-ile-Val, 0.5 mg/mL at the time the reaction is initiated] were in 50 mM Na acetate, pH 5.5, at 30° for 1 hour. Various concentrations of inhibitor in 1.0 ul DMSO were added to 25 ui of the peptide solution in water. The reaction is initiated by the addition of 15 ul of 0.33 nM protease (0.11 ng) in a solution of 0.133 M Na acetate pH 5.5 and 0.267% bovine serum albumin. The reaction was quenched with 160 ul of 5% phosphoric acid. Products of the reaction were separated by HPLC (VYDAC wide pore 5 cm C-18 reverse phase, acetonitrile gradient, 0.1% phosphoric acid). The extent of inhibition of the reaction was determined from the peak heights of the products.
Additional compounds were tested by the assay of Example 9.

HIV protease [2] = molecular target: T1, HIV protease; assay: Assay for Inhibition of Synthetic Viral Protease (HPLC of peptide substrate cleavage products); type: biochemical; conditions: synthetic protease (residues 69-167 of the pol open reading frame), substrate Val-Ser-Gln-Asn-Tyr-Pro-Ile-Val 2 mg/mL, 50 mM Na acetate, pH 5.5, 30 C, 1 hour; read-out: ICso
Description: Assay for Inhibition of Synthetic Viral Protease
Inhibition studies of the reaction of the synthetic protease [amino acid residues 69-167 of the pol open reading frame in Ratner, L. et al, Nature, 313, 277 (1985) and synthesized by Merrifield solid-phase synthesis] with a peptide substrate[Val-Ser-Gln-Asn-Tyr-Pro-Ile-Val, 2 mg/mL when the reaction is initiated) were in 50 mM Na acetate, pH 5.5, at 30 C for 1 hour. Various concentrations of inhibitor in 1.0 µl DMSO were added to 36 µl of assay solution and the reaction initiated by the addition of 4 ul (1.6 µg) of synthetic protease. The reaction was quenched with 160 ul of 12% acetic acid. Products of the reaction were separated by HPLC (VYDAC wide pore 5 cm C-18 reverse phase, acetonitrile gradient, 0.1% trifluoroacetic acid). The extent of inhibition of the reaction was determined from the peak heights of the products. HPLC of the products, independently synthesized, provided quantitation standards and confirmation of the product composition.

IC50 (HIV protease [1]) [nM] | SMILES | IC50 (HIV protease [2]) [nM]
– | CC(C)C[C@H](NC(=O)[C@H](Cc1ccccc1)C[C@H](O)[C@H](CC1CCCCC1)NC(=O)OC(C)(C)C)C(=O)N[C@@H](Cc1ccccc1)C(N)=O [Compound IV, N'-(1,1-dimethylethoxycarbonyl)-5(S)-amino-4(S)-hydroxy-6-cyclohexyl-2(R)-(phenylmethyl)hexanoyl-leucyl-phenylalanylamide] | ~27
~1.4 | CC(C)C[C@H](NC(=O)[C@H](Cc1ccccc1)C[C@H](O)[C@H](Cc1ccccc1)NC(=O)OC(C)(C)C)C(=O)NCc1ccccc1 [Compound II, N-Benzyl-N'-(1,1-dimethylethexycarbonyl)-5(S)-amino-4(S)-hydroxy-6-phenyl-2(R)-(phenylmethyl)hexanoyl-leucyl-amide] | –
~0.6 | CC(C)C[C@H](NC(=O)[C@H](Cc1ccccc1)C[C@H](O)[C@H](Cc1ccccc1)NC(=O)OC(C)(C)C)C(=O)N[C@@H](Cc1ccccc1)C(N)=O [Compound I, N'-(1,1-Dimethylethoxycarbonyl)-5(S)-amino-4(S)-hydroxy-6-phenyl-2(R)-(phenylmethyl)-hexanoyl-Leucyl-phenylalanyl amide] | ~2

SMILES | IC50 (HIV protease [1]) [nM] | IC50 (HIV protease [2]) [nM]
CC(C)(C)OC(=O)N[C@@H](Cc1ccccc1)[C@@H](O)C[C@@H](Cc1ccccc1)C(=O)NCc1ccccc1 [Compound III] | ~120 | ~50
